In patent publication US9527885B2, “Hepatitis C virus inhibitors” (BRISTOL-MYERS SQUIBB COMPANY, priority 2011, dated 2016):
Where two headings read alike, the source gives them in different places.

Key:
[1] = system: HCV genotype 1b (Con1) replicon in HUH-7 cells; test: HCV replicon luciferase reporter assay, genotype 1b; format: cell-based; conditions: Hepatitis C virus, 72 h, 3 days incubation, read-out: LE_1b (EC50, range)
Excerpt: An HCV replicon whole cell system was established as described by Lohmann V, Korner F, Koch J, Herian U, Theilmann L, Bartenschlager R., Science 285(5424):110-3 (1999) and modified to introduce a luciferase reporter, as first described by Krieger et al (Krieger N, Lohmann V, and Bartenschlager R, J. Virol. 75(10):4614-4624 (2001)). CDNA encoding a humanized form of the Renilla luciferase gene and a linker sequence fused directly to the 3′-end of the luciferase gene were introduced into the replicon construct using an Asc1 restriction site located in core, directly upstream of the neomycin marker gene. The adaptive mutation at position 1179 (serine to isoleucine) was also introduced (Blight K J, Kolykhalov, A A, Rice, C M, Science 290(5498):1972-1974). A stable cell line constitutively expressing this HCV replicon construct was generated by first linearizing plasmid DNAs with ScaI. RNA transcripts were synthesized in vitro using the T7 MegaScript transcription kit (Ambion, Austin, Tex.) according to manufacturer's directions. In vitro transcripts of the cDNA were transfected into the human hepatoma cell line, HUH-7. […] Resulting cell lines were characterized for positive and negative strand RNA production and protein production over time. […]
(§1) HCV replicon luciferase assays were developed to monitor the inhibitory effects of compounds described in the disclosure on HCV genotypes 1a and 1b viral replication. HUH-7 cells, constitutively expressing the HCV replicon, were grown in Dulbecco's Modified Eagle Media (DMEM) (Gibco-BRL) containing 10% Fetal calf serum (FCS) (Sigma) and 1 mg/mL G418 (Gibco-BRL). Compounds were serially diluted 3 folds in DMSO for a twenty-point titration and subsequently transferred to sterile 384-well tissue-culture treated plates (Corning cat #3571). The plates were then seeded with 50 μL of cells at a density of 3.0×10^3 cells/well in DMEM containing 4% FCS (final DMSO concentration at 0.5%). After 3 days incubation at 37° C., cells were analyzed for Renilla Luciferase activity using the EnduRen as substrate (Promega cat #E6485). The EnduRen substrate was diluted in DMEM and then added to the plates to a final concentration of 7.5 μM. The plates were incubated for 2 hrs at 37° C. and then read immediately for 30 seconds with Viewlux Imager (PerkinElmer) using a luminescence program. To assess cytotoxicity of compounds, CC50 values were generated by multiplexing the EnduRen-containing plates with Cell Titer-Blue (Promega, cat # G8082). Cell-Titer Blue (3 μL) was added to each well and incubated for 8 hrs at 37° C. The fluorescence signal from each well was read, with an excitation wavelength at 525/10 nm and an emission wavelength of 598/10 nm, using the Viewlux Imager.
(§2) The EC50 values for compounds were calculated by using a four-parameter logistic equation: y=A+((B−A)/(1+((C/x)^D))), where A and B denotes minimal and maximal % inhibition, respectively, C is the EC50, D is the hill slope and x represents compound concentration.

[2] = system: HCV genotype 1a (H77 strain) replicon in HUH-7 cells; test: HCV replicon luciferase reporter assay, genotype 1a; format: cell-based; conditions: Hepatitis C virus, Huh-7, 72 h, 3 days incubation, read-out: LE_1a (EC50, range)
Excerpt: An HCV replicon whole cell system was established as described by Lohmann V, Korner F, Koch J, Herian U, Theilmann L, Bartenschlager R., Science 285(5424):110-3 (1999) and modified to introduce a luciferase reporter, as first described by Krieger et al (Krieger N, Lohmann V, and Bartenschlager R, J. Virol. 75(10):4614-4624 (2001)). CDNA encoding a humanized form of the Renilla luciferase gene and a linker sequence fused directly to the 3′-end of the luciferase gene were introduced into the replicon construct using an Asc1 restriction site located in core, directly upstream of the neomycin marker gene. The adaptive mutation at position 1179 (serine to isoleucine) was also introduced (Blight K J, Kolykhalov, A A, Rice, C M, Science 290(5498):1972-1974). A stable cell line constitutively expressing this HCV replicon construct was generated by first linearizing plasmid DNAs with ScaI. RNA transcripts were synthesized in vitro using the T7 MegaScript transcription kit (Ambion, Austin, Tex.) according to manufacturer's directions. In vitro transcripts of the cDNA were transfected into the human hepatoma cell line, HUH-7. […] Resulting cell lines were characterized for positive and negative strand RNA production and protein production over time.
A stable HCV replicon luciferase reporter cell line representing the genotype 1a H77 strain (Yanagi M, Purcell R H, Emerson S U, et al. Transcripts from a single full-length cDNA clone of hepatitis C virus are infectious when directly transfected into the liver of a chimpanzee. Proc Natl Acad Sci USA 1997; 94(16):8738-8743) was generated as described previously for the genotype 1b (Con1) replicon luciferase cell line. The replicon construct was modified by introducing mutations were introduced into the genes encoding the NS3 helicase domain (proline replaced by leucine at position 1496) and NS5A (serine to isoleucine at position 2204) to improve replication in cell culture.
as §1, §2

[3] = HCV genotype 1b replicon luciferase, range class
[4] = HCV genotype 1a replicon luciferase, range class
[5] = HCV genotype 1b replicon luciferase, class symbols
[6] = HCV genotype 1a replicon luciferase, class symbols

| Compound | EC50 [1, 3] | EC50 [2, 4] | EC50 [1, 5] | EC50 [2, 6] | further results |
| --- | --- | --- | --- | --- | --- |
| C[C@@H]1CC/C=C\[C@@H]2C[C@@]2(C(=O)NS(=O)(=O)C2CC2)NC(=O)[C@@H]2C[C@@H](Oc3nccc4c5c(ccc34)OC(F)(F)O5)CN2C(=O)[C@@H](NC(=O)O[C@@H]2C[C@@H]3C[C@@H]3C2)[C@H](C)C1 [Compound 5274, (1R,3r,5S)-bicyclo[3.1.0]hexan-3-yl ((2R,6S,7R,9R,13aS,14aR,16aS,Z)-14a-((cyclopropylsulfonyl)carbamoyl)-2-((2,2-difluoro-[1,3]dioxolo[4,5-f]isoquinolin-6-yl)oxy)-7,9-dimethyl-5,16-dioxo-1,2,3,5,6,7,8,9,10,11,13a,14,14a,15,16,16a-hexadecahydrocyclopropa[e]pyrrolo[1,2-a][1,4]diazacyclopentadecin-6-yl)carbamate] | < 5.46 nM | < 5.46 nM |  |  |  |
| COc1ccc2c(O[C@@H]3C[C@H]4C(=O)N[C@]5(C(=O)NS(=O)(=O)C6(CF)CC6)C[C@H]5/C=C\CC[C@@H](C)C[C@@H](C)[C@H](NC(=O)OC(C)(C)C(C)(F)F)C(=O)N4C3)nc(N(C)C)cc2c1 [Compound 3125, 3,3-difluoro-2-methylbutan-2-yl ((2R,6S,7R,9R,13aS,14aR,16aS,Z)-2-((3-(dimethylamino)-6-methoxyisoquinolin-1-yl)oxy)-14a-(((1-(fluoromethyl)cyclopropyl)sulfonyl)carbamoyl)-7,9-dimethyl-5,16-dioxo-1,2,3,5,6,7,8,9,10,11,13a,14,14a,15,16,16a-hexadecahydrocyclopropa[e]pyrrolo[1,2-a][1,4]diazacyclopentadecin-6-yl)carbamate] |  |  |  |  | EC50 ([1]; HCV genotype 1b replicon luciferase reporter, range class): < 5.46 nM; EC50 ([2]; HCV genotype 1a replicon luciferase reporter, range class): 4.82 to 103 nM |
| COc1ccc2c(O[C@@H]3C[C@H]4C(=O)N[C@]5(C(=O)NS(=O)(=O)C6CC6)C[C@H]5/C=C\CC[C@H](C)C[C@@H](C)[C@H](NC(=O)O[C@@H]5C[C@@H]6C[C@@H]6C5)C(=O)N4C3)nc(-c3ccc(OC(C)C)nc3)cc2c1 [Compound 5218, (1R,3r,5S)-bicyclo[3.1.0]hexan-3-yl ((2R,6S,7R,9S,13aS,14aR,16aS,Z)-14a-((cyclopropylsulfonyl)carbamoyl)-2-((3-(6-isopropoxypyridin-3-yl)-6-methoxyisoquinolin-1-yl)oxy)-7,9-dimethyl-5,16-dioxo-1,2,3,5,6,7,8,9,10,11,13a,14,14a,15,16,16a-hexadecahydrocyclopropa[e]pyrrolo[1,2-a][1,4]diazacyclopentadecin-6-yl)carbamate] | < 5.46 nM | < 5.46 nM |  |  |  |
| CC[C@@H]1C[C@H](C)CC/C=C\[C@@H]2C[C@@]2(C(=O)NS(=O)(=O)C2CC2)NC(=O)[C@@H]2C[C@@H](Oc3ncc(OC)c4ccccc34)CN2C(=O)[C@H]1NC(=O)OC(C)(C)C [Compound 4007, tert-butyl (2R,6S,7R,9R,13aS,14aR,16aS,Z)-14a-(cyclopropylsulfonylcarbamoyl)-7-ethyl-2-(4-methoxyisoquinolin-1-yloxy)-9-methyl-5,16-dioxo-1,2,3,5,6,7,8,9,10,11,13a,14,14a,15,16,16a-hexadecahydrocyclopropa[e]pyrrolo[1,2-a][1,4]diazacyclopentadecin-6-ylcarbamate] |  |  | < 5.46 nM | < 5.46 nM |  |
| COc1ccc2c(O[C@@H]3C[C@H]4C(=O)N[C@]5(C(=O)NS(=O)(=O)C6(C)CC6)C[C@H]5/C=C\CC[C@H](C)C[C@@H](C)[C@H](NC(=O)O[C@@H]5C[C@@H]6C[C@@H]6C5)C(=O)N4C3)nc(-c3ccc(OC(C)C)nc3)cc2c1 [Compound 5228, (1R,3r,5S)-bicyclo[3.1.0]hexan-3-yl ((2R,6S,7R,9S,13aS,14aR,16aS,Z)-2-((3-(6-isopropoxypyridin-3-yl)-6-methoxyisoquinolin-1-yl)oxy)-7,9-dimethyl-14a-(((1-methylcyclopropyl)sulfonyl)carbamoyl)-5,16-dioxo-1,2,3,5,6,7,8,9,10,11,13a,14,14a,15,16,16a-hexadecahydrocyclopropa[e]pyrrolo[1,2-a][1,4]diazacyclopentadecin-6-yl)carbamate] | < 5.46 nM | 4.82 to 103 nM |  |  |  |
| CCCOc1ccc2c(O[C@@H]3C[C@H]4C(=O)N[C@]5(C(=O)NS(=O)(=O)C6CC6)C[C@H]5/C=C\CC[C@@H](C)C[C@@H](C)[C@H](NC(=O)OC(C(F)(F)F)(C(Cl)(Cl)Cl)C(Cl)(Cl)Cl)C(=O)N4C3)nccc2c1 [Compound 5173, 1,1,1,3,3,3-hexachloro-2-(trifluoromethyl)propan-2-yl ((2R,6S,7R,9R,13aS,14aR,16aS,Z)-14a-((cyclopropylsulfonyl)carbamoyl)-7,9-dimethyl-5,16-dioxo-2-((6-propoxyisoquinolin-1-yl)oxy)-1,2,3,5,6,7,8,9,10,11,13a,14,14a,15,16,16a-hexadecahydrocyclopropa[e]pyrrolo[1,2-a][1,4]diazacyclopentadecin-6-yl)carbamate] | < 5.46 nM | < 5.46 nM |  |  |  |
| CC[C@@H]1C[C@H](C)CC/C=C\[C@@H]2C[C@@]2(C(=O)NS(=O)(=O)C2(C)CC2)NC(=O)[C@@H]2C[C@@H](Oc3ncc(OC)c4ccccc34)CN2C(=O)[C@H]1NC(=O)OC(C)(C)C(F)(F)F [Compound 4174, 1,1,1-trifluoro-2-methylpropan-2-yl (2R,6S,7R,9R,13aS,14aR,16aS,Z)-7-ethyl-2-(4-methoxyisoquinolin-1-yloxy)-9-methyl-14a-(1-methylcyclopropylsulfonylcarbamoyl)-5,16-dioxo-1,2,3,5,6,7,8,9,10,11,13a,14,14a,15,16,16a-hexadecahydrocyclopropa[e]pyrrolo[1,2-a][1,4]diazacyclopentadecin-6-ylcarbamate] |  |  | < 5.46 nM | < 5.46 nM |  |
| COc1ccc(-c2nc(O[C@@H]3C[C@H]4C(=O)N[C@]5(C(=O)NS(=O)(=O)C6CC6)C[C@@H]5/C=C\CC[C@@H](C)C[C@@H](C)[C@H](NC(=O)OC(C)(C)C)C(=O)N4C3)c3ccc(OC)cc3n2)cc1 [Compound 5002, tert-butyl ((2R,6S,7R,9R,13aR,14aR,16aS,Z)-14a-((cyclopropylsulfonyl)carbamoyl)-2-((7-methoxy-2-(4-methoxyphenyl)quinazolin-4-yl)oxy)-7,9-dimethyl-5,16-dioxo-1,2,3,5,6,7,8,9,10,11,13a,14,14a,15,16,16a-hexadecahydrocyclopropa[e]pyrrolo[1,2-a][1,4]diazacyclopentadecin-6-yl)carbamate] |  |  | < 5.46 nM | < 5.46 nM |  |
